Experiment: xn = mol fraction of the nth substance listed
Conditions: Gas, Buoyancy - hydrostatic balance with magnetic suspension - one sinker

[HH] [hydrogen] + C
Conditions	mass density [kg/m3]
275.01 K, 5005 kPa, x2 = 0.9	35.103
275.01 K, 6005 kPa, x2 = 0.9	42.849
275.01 K, 6005 kPa, x2 = 0.9499	45.691
275.01 K, 7005 kPa, x2 = 0.9	50.825
275.01 K, 7005 kPa, x2 = 0.9499	54.384
275.01 K, 8002 kPa, x2 = 0.9	58.973
275.01 K, 8003 kPa, x2 = 0.9499	63.333
275.01 K, 9002 kPa, x2 = 0.9	67.322
275.01 K, 9003 kPa, x2 = 0.9499	72.54
275.01 K, 10005 kPa, x2 = 0.9	75.811
275.01 K, 10006 kPa, x2 = 0.9499	81.955
275.01 K, 11001 kPa, x2 = 0.4997	43.883
275.01 K, 11005 kPa, x2 = 0.9499	91.455
275.01 K, 11006 kPa, x2 = 0.9	84.369
275.01 K, 12007 kPa, x2 = 0.9	92.928
275.01 K, 12009 kPa, x2 = 0.9499	101.013
275.01 K, 13009 kPa, x2 = 0.9	101.458
275.01 K, 13011 kPa, x2 = 0.9499	110.507
275.01 K, 14003 kPa, x2 = 0.4997	55.493
275.01 K, 14006 kPa, x2 = 0.9	109.837
275.01 K, 14006 kPa, x2 = 0.9499	119.787
275.01 K, 15000 kPa, x2 = 0.4997	59.259
275.01 K, 15008 kPa, x2 = 0.9	118.086
275.01 K, 15018 kPa, x2 = 0.9499	128.986
275.01 K, 16003 kPa, x2 = 0.9	126.067
275.01 K, 16005 kPa, x2 = 0.4997	63.009
275.01 K, 16016 kPa, x2 = 0.9499	137.753
275.01 K, 17006 kPa, x2 = 0.4997	66.693
275.01 K, 17009 kPa, x2 = 0.9	133.878
275.01 K, 17010 kPa, x2 = 0.9499	146.15
275.01 K, 18001 kPa, x2 = 0.4997	70.294
275.01 K, 18006 kPa, x2 = 0.9	141.344
275.01 K, 19020 kPa, x2 = 0.9499	161.966
275.01 K, 19297 kPa, x2 = 0.4997	74.901
275.01 K, 19909 kPa, x2 = 0.9499	168.44
275.02 K, 18019 kPa, x2 = 0.9499	154.292
275.02 K, 19012 kPa, x2 = 0.9	148.567
275.02 K, 19897 kPa, x2 = 0.9	154.661
299.95 K, 3999 kPa, x2 = 0.9	24.698
299.95 K, 16003 kPa, x2 = 0.9	107.531
299.96 K, 999 kPa, x2 = 0.9	5.941
299.96 K, 999 kPa, x2 = 0.9499	6.241
299.96 K, 1999 kPa, x2 = 0.9	12.047
299.96 K, 2000 kPa, x2 = 0.9499	12.675
299.96 K, 2983 kPa, x2 = 0.9499	19.18
299.96 K, 2990 kPa, x2 = 0.9	18.241
299.96 K, 3999 kPa, x2 = 0.9499	26.096
299.96 K, 4999 kPa, x2 = 0.9	31.243
299.96 K, 4999 kPa, x2 = 0.9499	33.078
299.96 K, 5999 kPa, x2 = 0.9	37.914
299.96 K, 6000 kPa, x2 = 0.9499	40.236
299.96 K, 6999 kPa, x2 = 0.9	44.708
299.96 K, 7000 kPa, x2 = 0.9499	47.554
299.96 K, 8001 kPa, x2 = 0.9	51.609
299.96 K, 8001 kPa, x2 = 0.9499	55.012
299.96 K, 9002 kPa, x2 = 0.9	58.59
299.96 K, 9003 kPa, x2 = 0.9499	62.59
299.96 K, 10003 kPa, x2 = 0.9	65.636
299.96 K, 10004 kPa, x2 = 0.9499	70.258
299.96 K, 11001 kPa, x2 = 0.9499	77.955
299.96 K, 11003 kPa, x2 = 0.9	72.706
299.96 K, 12002 kPa, x2 = 0.9	79.763
299.96 K, 12003 kPa, x2 = 0.9499	85.693
299.96 K, 13002 kPa, x2 = 0.9	86.81
299.96 K, 13003 kPa, x2 = 0.9499	93.405
299.96 K, 14003 kPa, x2 = 0.9	93.813
299.96 K, 14006 kPa, x2 = 0.9499	101.077
299.96 K, 15004 kPa, x2 = 0.9499	108.622
299.96 K, 15005 kPa, x2 = 0.9	100.739
299.96 K, 16005 kPa, x2 = 0.9499	116.045
299.96 K, 17007 kPa, x2 = 0.9	114.233
299.96 K, 17007 kPa, x2 = 0.9499	123.312
299.96 K, 18003 kPa, x2 = 0.9	120.727
299.96 K, 18007 kPa, x2 = 0.9499	130.371
299.96 K, 18999 kPa, x2 = 0.9499	137.175
299.96 K, 19011 kPa, x2 = 0.9	127.134
299.96 K, 19426 kPa, x2 = 0.9499	140.03
299.96 K, 19795 kPa, x2 = 0.9	131.987
324.96 K, 999 kPa, x2 = 0.9	5.467
324.96 K, 1002 kPa, x2 = 0.4997	3.349
324.96 K, 1999 kPa, x2 = 0.9	11.036
324.96 K, 2003 kPa, x2 = 0.4997	6.689
324.96 K, 2987 kPa, x2 = 0.4997	9.973
324.96 K, 2999 kPa, x2 = 0.9	16.7
324.96 K, 4000 kPa, x2 = 0.9	22.453
324.96 K, 4001 kPa, x2 = 0.4997	13.346
324.96 K, 4999 kPa, x2 = 0.9	28.286
324.96 K, 5001 kPa, x2 = 0.4997	16.663
324.96 K, 6000 kPa, x2 = 0.9	34.198
324.96 K, 6001 kPa, x2 = 0.4997	19.966
324.96 K, 6999 kPa, x2 = 0.9	40.162
324.96 K, 7000 kPa, x2 = 0.4997	23.25
324.96 K, 8002 kPa, x2 = 0.4997	26.528
324.96 K, 8004 kPa, x2 = 0.9	46.209
324.96 K, 8999 kPa, x2 = 0.4997	29.768
324.96 K, 9000 kPa, x2 = 0.9	52.245
324.96 K, 9001 kPa, x2 = 0.9499	55.531
324.96 K, 9926 kPa, x2 = 0.4997	32.763

Source: the NIST ThermoML archive (doi:10.1021/acs.jced.7b01125)
